Assay results: PMC9741287, “Cytotoxic and Luminescent Properties of Novel Organotin Complexes with Chelating Antioxidant Ligand” (Molecules, 2022)

Columns and labels:
[1] = system: formation of advanced glycation end products (AGEs); assay: Antiglycation activity (BSA-glucose, AGE fluorescence); format: biochemical; details: for Antiglycation activity, M ± SEM: 24 h at 60 °C
Method: The glycation reaction was carried out in a phosphate buffer solution of 0.05 M, pH 7.4. Composition of the reaction medium: 0.36 M glucose solution and 1 mg/mL BSA (fraction V). The test compounds were dissolved in 99% DMSO (final concentration in the reaction medium ~3%). The activity of compound 1 was studied in the concentration range of 1000–0.1 μM, and the activity of aminoguanidine was determined at concentrations of 10,000–1000 μM. Control samples contained an equivalent volume of solvent. The samples were incubated for 24 h at 60 °C.
Data registration was carried out by the spectrofluorimetric method, determining AGE by specific fluorescence at excitation/emission wavelengths of 370/440 nm (spectrofluorimeter M 200 PRO, TECAN Austria GmbH, Grödig, Austria).
In order to exclude false positive results for compounds suppressing AGE fluorescence due to interference, the obtained data were logarithmically normalized according to Equation (4):Fly(log) = 10^(log10(Exp)−log10(Blank)) − 1(4) where Fly(log) is the normalized AGE fluorescence intensity, log10(Exp) and log10(blank) are the decimal logarithms of the actual fluorescence levels of glycated and corresponding non-glycated samples (both containing the test compound and controls).
The activity of other compounds (both non-fluorescent and fluorescent at the wavelengths used) was expressed by the Equation (5):Fly(lin) = Exp − Blank(5) where Fly(lin) is the fluorescence intensity of AGEs, Exp and blank are the actual fluorescence levels of glycated and corresponding non-glycated samples (both those containing the test compound and controls).
Determination of activity expressed as % suppression of fluorescence of AGE, was made according to the Equation (6):% = 100 − (Fly(Exp) × 100/Fly(Contr))(6) where Fly(Exp) and Fly(Contr) are the CPG fluorescence intensity of experimental and control samples, respectively (log-normalized or non-log-normalized).

[2] = system: HCT116 (human colorectal carcinoma); assay: MTT-test HCT116; format: cell-based
Method: (§1) Since the investigated compounds are designed as theranostic and cytostatic agents, their toxic impact was evaluated as a standard MTT-test. Cytotoxicity was studied on four cell lines, i.e.,—HCT116 (human colorectal carcinoma), MCF-7 (human breast cancer), A549 (human lung adenocarcinoma), and WI-38 (human fetal lung fibroblast). Obtained results appear to be unorthodox: as it is known, the introduction of an organotin moiety tends to noticeably increase compounds’ toxicity and more lipophilic ones do it better, but in the presented data pattern turns vice versa (Table 3).
(§2) HCT-116 (colon carcinoma), MCF-7 (breast adenocarcinoma), A-549 (lung adenocarcinoma) cell lines, and WI-38 (cell line composed of fibroblasts) were derived from The European Collection of Authenticated Cell Cultures (ECACC, Salisbury, UK), cultured in DMEM medium (Gibco™, Dublin, Ireland) supplemented with 10% fetal bovine serum (Gibco™, Brasilia, Brazil). The cells were cultured in an incubator at 37 °C in a humidified 5% CO2 atmosphere and subcultured two times a week.
(§3) The toxicity of compounds was studied on cultured cell lines according to standard MTT protocol.

[3] = system: MCF-7 (human breast cancer); assay: MTT-test MCF-7; format: cell-based
Method: as §1, §2, §3

[4] = system: A549 (human lung adenocarcinoma); assay: MTT-test A549; format: cell-based
Method: as §1, §2, §3

[5] = system: WI-38 (human fetal lung fibroblast); assay: MTT-test WI-38; format: cell-based
Method: as §1, §2, §3

Compound	IC50 [1]	Antiglycation activity, M ± SEM ([1]; concentration 1000 µM)	Antiglycation activity, M ± SEM ([1]; concentration 3000 µM)	Antiglycation activity, M ± SEM ([1]; concentration 10,000 µM)	IC50 [2]	IC50 [3]	IC50 [4]	IC50 [5]
N=C(N)NN [Aminoguanidine, reference compound]	5170 µM	21.6 ± 1.8%	39.5 ± 2.2%	62.0 ± 2.0%	–	–	–	–
N.N.[Cl][Pt][Cl] [Cisplatin, reference compound]	–	–	–	–	8.3 ± 3.5 µM	15.5 ± 3 µM	10.4 ± 1.5 µM	16.3 ± 1.9 µM
